Assay results: PubChem BioAssay AID328 (DTP/NCI, 2004)
Where “and” joins values, the source holds several entries; their conditions need not be identical. Equal entries are not always repeated. Toxic doses and inconclusive results are not listed. How the source made its calls: active means survival T/C of 150% or more; inactive means T/C below 125% in these data.

Test system: BDF1 mice, P388 leukemia ip, median survival T/C
Assay: NCI In Vivo Anticancer Drug Screen. Data for tumor model P388 Leukemia (intraperitoneal) in B6D2F1 (BDF1) mice
Conditions: endpoint: median survival time, higher = longer survival
How it was run: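 Antitumour effect was judged in vivo: survival in drug-treated mice, normalised to that of vehicle-dosed controls, gives the reported T/C.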

[1] = dose: 50.0 mg/kg/injection, schedule: Q01DX009 (ip), vehicle: saline
[2] = dose: 100.0 mg/kg/injection, schedule: Q01DX009 (ip), vehicle: saline
[3] = dose: 200.0 mg/kg/injection, schedule: Q01DX009 (ip), vehicle: saline
[4] = dose: 400.0 mg/kg/injection, schedule: Q01DX009 (ip), vehicle: saline
[5] = dose: 6.0 mg/kg/injection, schedule: Q04DX003 (ip), vehicle: saline with Tween-80

Measured: T/C

CC(=O)N(C)C(C(=O)N1CC(C)CC1C(=O)N(C)C1C(=O)NC(CC(C)C)C(=O)N2CC(C)CC2C(=O)NC(CC(C)C)C(=O)N(C)C(C(C)C)C(=O)N2CCCC2C(=O)N(C)C(CC(C)C)C(=O)NCC(=O)OC1C)C(C)C (stereo not drawn)
inactive: dose: 37.5 mg/kg/injection, schedule: Q01DX009 (ip), vehicle: Klucel (hydroxypropylcellulose) (HPC) 107 % of control | dose: 75.0 mg/kg/injection, schedule: Q01DX009 (ip), vehicle: Klucel (hydroxypropylcellulose) (HPC) 107 % of control

O=C(O)CC(NC(=O)CP(=O)(O)O)C(=O)O (stereo not drawn)
inactive: [1] 117 % of control | [2] 118 % of control | dose: 100.0 mg/kg/injection, schedule: Q01DX009 (ip), vehicle: water 100 % of control | dose: 180.0 mg/kg/injection, schedule: Q04DX003 (ip), vehicle: saline 118 % of control | dose: 200.0 mg/kg/injection, schedule: Q01DX009 (ip), vehicle: water 109 % of control | dose: 300.0 mg/kg/injection, schedule: Q01DX009 (ip), vehicle: saline 109 % of control | dose: 300.0 mg/kg/injection, schedule: Q01DX009 (ip), vehicle: water 106 % of control | dose: 300.0 mg/kg/injection, schedule: Q04DX003 (ip), vehicle: saline 109 % of control | [4] 96 % of control | dose: 500.0 mg/kg/injection, schedule: Q04DX003 (ip), vehicle: saline 122 % of control | dose: 600.0 mg/kg/injection, schedule: Q04DX003 (ip), vehicle: saline 118 % of control | dose: 833.0 mg/kg/injection, schedule: Q04DX003 (ip), vehicle: saline 100 % of control | dose: 1000.0 mg/kg/injection, schedule: Q04DX003 (ip), vehicle: saline 85 % of control | dose: 1500.0 mg/kg/injection, schedule: Q04DX003 (ip), vehicle: saline 64 % of control
active: [3] 157 % of control | dose: 750.0 mg/kg/injection, schedule: Q04DX003 (ip), vehicle: saline 163 % of control

O=C(CC/[N+]([O-])=C/c1ccccc1)OCc1ccccc1
inactive: dose: 12.5 mg/kg/injection, schedule: Q01DX009 (ip), vehicle: other 92 % of control | dose: 25.0 mg/kg/injection, schedule: Q01DX009 (ip), vehicle: other 97 % of control | dose: 50.0 mg/kg/injection, schedule: Q01DX009 (ip), vehicle: other 103 % of control | dose: 100.0 mg/kg/injection, schedule: Q01DX009 (ip), vehicle: other 97 % of control | dose: 200.0 mg/kg/injection, schedule: Q01DX009 (ip), vehicle: other 92 % of control

CCOC(=O)C(N)Cc1ccc(N(CCCl)CCCl)cc1 (stereo not drawn)
272 % of control and 95 % of control: dose: 9.0 mg/kg/injection, schedule: Q04DX003 (ip), vehicle: saline with Tween-80
active: dose: 4.0 mg/kg/injection, schedule: Q04DX003 (ip), vehicle: saline with Tween-80 240 % of control and 245 % of control | [5] 272 % of control

Clc1ccc(C[P+](c2ccccc2)(c2ccccc2)c2ccccc2)cc1Cl
inactive: dose: 0.45 mg/kg/injection, schedule: Q01DX009 (ip), vehicle: saline 104 % of control | dose: 0.9 mg/kg/injection, schedule: Q01DX009 (ip), vehicle: saline 100 % of control | dose: 1.35 mg/kg/injection, schedule: Q01DX001 (ip), vehicle: saline 100 % of control | dose: 1.8 mg/kg/injection, schedule: Q01DX009 (ip), vehicle: saline 91 % of control | dose: 2.7 mg/kg/injection, schedule: Q01DX001 (ip), vehicle: saline 95 % of control | dose: 3.6 mg/kg/injection, schedule: Q01DX009 (ip), vehicle: saline 108 % of control

C1=CC2C3=CC1C=CC32 (stereo not drawn)
inactive: dose: 18.75 mg/kg/injection, schedule: Q04DX003 (ip), vehicle: Klucel (hydroxypropylcellulose) (HPC) 91 % of control | dose: 37.5 mg/kg/injection, schedule: Q04DX003 (ip), vehicle: Klucel (hydroxypropylcellulose) (HPC) 95 % of control | dose: 75.0 mg/kg/injection, schedule: Q04DX003 (ip), vehicle: Klucel (hydroxypropylcellulose) (HPC) 91 % of control

N#CN1CC(C(=O)N2CCCCC2)C=C2c3cccc4[nH]cc(c34)CC21 (stereo not drawn)
inactive: dose: 6.25 mg/kg/injection, schedule: Q01DX009 (ip), vehicle: saline 106 % of control | dose: 6.25 mg/kg/injection, schedule: Q04DX003 (ip), vehicle: saline 114 % of control | dose: 12.5 mg/kg/injection, schedule: Q01DX009 (ip), vehicle: saline 94 % of control | dose: 12.5 mg/kg/injection, schedule: Q04DX003 (ip), vehicle: saline 113 % of control | dose: 25.0 mg/kg/injection, schedule: Q04DX003 (ip), vehicle: saline 106 % of control | [1] 88 % of control | dose: 50.0 mg/kg/injection, schedule: Q04DX003 (ip), vehicle: saline 106 % of control | dose: 100.0 mg/kg/injection, schedule: Q04DX003 (ip), vehicle: saline 94 % of control

O.Oc1ccccc1C=NCCC[N-]CCCN=Cc1ccccc1O.[Co]
inactive: dose: 50.0 mg/kg/injection, schedule: Q01DX009 (ip), vehicle: saline with Tween-80 114 % of control

C#CC[As+](c1ccccc1)(c1ccccc1)c1ccccc1
inactive: dose: 3.0 mg/kg/injection, schedule: Q01DX009 (ip), vehicle: Klucel (hydroxypropylcellulose) (HPC) 121 % of control | dose: 5.3 mg/kg/injection, schedule: Q04DX003 (ip), vehicle: Klucel (hydroxypropylcellulose) (HPC) 117 % of control | dose: 12.0 mg/kg/injection, schedule: Q04DX003 (ip), vehicle: Klucel (hydroxypropylcellulose) (HPC) 104 % of control and 113 % of control | dose: 25.0 mg/kg/injection, schedule: Q04DX003 (ip), vehicle: Klucel (hydroxypropylcellulose) (HPC) 109 % of control

O=c1[nH]cc(Br)c2sccc12
inactive: dose: 150.0 mg/kg/injection, schedule: Q01DX009 (ip), vehicle: saline 90 % of control | dose: 225.0 mg/kg/injection, schedule: Q01DX009 (ip), vehicle: saline 86 % of control

CCOc1cccc2c1C(=O)c1c(O)c3c(c(O)c1C2=O)C[C@@](O)(C(C)=O)C[C@@H]3OC1CC(N)C(O)C(C)O1 (stereo partly drawn)
inactive: dose: 6.25 mg/kg/injection, schedule: Q04DX003 (ip), vehicle: water 123 % of control | dose: 50.0 mg/kg/injection, schedule: Q04DX003 (ip), vehicle: water 108 % of control

COc1cc2c(cc1OC)-c1cc3cc(OC)c(OC)cc3c(C)[n+]1CC2
inactive: dose: 12.5 mg/kg/injection, schedule: Q01DX009 (ip), vehicle: Klucel (hydroxypropylcellulose) (HPC) 106 % of control | dose: 25.0 mg/kg/injection, schedule: Q01DX009 (ip), vehicle: Klucel (hydroxypropylcellulose) (HPC) 106 % of control | dose: 50.0 mg/kg/injection, schedule: Q01DX009 (ip), vehicle: Klucel (hydroxypropylcellulose) (HPC) 113 % of control

C=CCC(CC)(C(=O)OCC)C(=O)OCC
inactive: [2] 100 % of control | [3] 104 % of control | [4] 122 % of control

C=CCN(CC=C)CCNc1nc(C(Cl)(Cl)Cl)nc2ccc(Cl)cc12
inactive: dose: 100.0 mg/kg/injection, schedule: Q04DX003 (ip), vehicle: saline with Tween-80 100 % of control | dose: 200.0 mg/kg/injection, schedule: Q04DX003 (ip), vehicle: saline with Tween-80 112 % of control | dose: 400.0 mg/kg/injection, schedule: Q04DX003 (ip), vehicle: saline with Tween-80 116 % of control

C/C(=N/S(=O)(=O)c1ccc(C)cc1)OCCN(C)C
inactive: dose: 1.5 mg/kg/injection, schedule: Q01DX009 (ip), vehicle: saline with Tween-80 104 % of control | dose: 3.0 mg/kg/injection, schedule: Q01DX009 (ip), vehicle: saline with Tween-80 109 % of control | dose: 3.0 mg/kg/injection, schedule: Q04DX003 (ip), vehicle: saline with Tween-80 100 % of control | dose: 6.0 mg/kg/injection, schedule: Q01DX009 (ip), vehicle: saline with Tween-80 118 % of control | [5] 100 % of control

CCOc1ccc(Nc2ncnc3nc[nH]c23)cc1CN(CCCl)CCCl
inactive: dose: 0.13 mg/kg/injection, schedule: Q04DX003 (ip), vehicle: saline 106 % of control | dose: 0.2 mg/kg/injection, schedule: Q04DX003 (ip), vehicle: saline 117 % of control | dose: 0.25 mg/kg/injection, schedule: Q01DX009 (ip), vehicle: saline 118 % of control | dose: 0.3 mg/kg/injection, schedule: Q04DX003 (ip), vehicle: saline 121 % of control
active: dose: 0.29 mg/kg/injection, schedule: Q04DX003 (ip), vehicle: saline 196 % of control | dose: 0.88 mg/kg/injection, schedule: Q04DX003 (ip), vehicle: saline 165 % of control | dose: 1.0 mg/kg/injection, schedule: Q01DX009 (ip), vehicle: saline 154 % of control | dose: 1.0 mg/kg/injection, schedule: Q04DX003 (ip), vehicle: saline 205 % of control | dose: 2.0 mg/kg/injection, schedule: Q01DX009 (ip), vehicle: saline 172 % of control | dose: 2.2 mg/kg/injection, schedule: Q01DX009 (ip), vehicle: saline 163 % of control | dose: 3.0 mg/kg/injection, schedule: Q04DX003 (ip), vehicle: saline 155 % of control | dose: 3.3 mg/kg/injection, schedule: Q01DX009 (ip), vehicle: saline 154 % of control
